Laboratory results taken from PMC5218480 (PLoS ONE, 2017).

Tested on: MV-4-11 cells
Experiment: Gene expression microarray analysis (Affymetrix PrimeView) and GSEA
Type: cell-based, human
Set-up: RFU PODN (11730768_x_at) / Fold change /veh PODN (11730768_x_at) / RFU LINC00158 (11744669_a_at) / Fold change /veh LINC00158 (11744669_a_at) / RFU DUSP10 (11751237_a_at) / Fold change /veh DUSP10 (11751237_a_at) / RFU ID3 (11757404_x_at) / Fold change /veh ID3 (11757404_x_at) / RFU PLEKHG5 (11737974_s_at) / Fold change /veh PLEKHG5 (11737974_s_at) / RFU LRRC4B (11730491_at) / Fold change /veh LRRC4B (11730491_at) / RFU GIMAP4 (11747438_a_at) / Fold change /veh GIMAP4 (11747438_a_at) / RFU KRT8 (11758183_x_at) / Fold change /veh KRT8 (11758183_x_at) / RFU CNN1 (11734310_a_at) / Fold change /veh CNN1 (11734310_a_at) / RFU VPS37D (11726825_at) / Fold change /veh VPS37D (11726825_at) / RFU C10orf10 (11716522_x_at) / Fold change /veh C10orf10 (11716522_x_at) / RFU KIR2DL2 /// KIR2DL4 /// KIR2DL5A /// KIR2DL5B /// KIR2DS1 /// KIR2DS2 /// KIR2DS3 /// KIR2DS4 /// KIR3DL3 /// KIR3DL3 /// KIR3DS1 (11738374_at) / Fold change /veh KIR2DL2 /// KIR2DL4 /// KIR2DL5A /// KIR2DL5B /// KIR2DS1 /// KIR2DS2 /// KIR2DS3 /// KIR2DS4 /// KIR3DL3 /// KIR3DL3 /// KIR3DS1 (11738374_at) / RFU C1QL1 (11718748_at) / Fold change /veh C1QL1 (11718748_at) / RFU TMPRSS4 (11747572_a_at) / Fold change /veh TMPRSS4 (11747572_a_at) / RFU HAMP (11756126_x_at) / Fold change /veh HAMP (11756126_x_at) / RFU RNFT2 (11725882_a_at) / Fold change /veh RNFT2 (11725882_a_at) / RFU NR4A2 (11747474_a_at) / Fold change /veh NR4A2 (11747474_a_at) / RFU ABCC12 (11746883_a_at) / Fold change /veh ABCC12 (11746883_a_at) / RFU TMEM136 (11760407_x_at) / Fold change /veh TMEM136 (11760407_x_at) / RFU CLDN22 /// WWC2 (11732394_at) / Fold change /veh CLDN22 /// WWC2 (11732394_at) / RFU HLA-DPB1 (11760878_x_at) / Fold change /veh HLA-DPB1 (11760878_x_at) / RFU SPINT1 (11716480_a_at) / Fold change /veh SPINT1 (11716480_a_at) / RFU GAP43 (11754022_s_at) / Fold change /veh GAP43 (11754022_s_at) / RFU A4GNT (11735810_at) / Fold change /veh A4GNT (11735810_at) / RFU PRB3 (11715151_x_at) / Fold change /veh PRB3 (11715151_x_at) / RFU TUBB4B (11761932_at) / Fold change /veh TUBB4B (11761932_at) / RFU CAPN14 (11732068_a_at) / Fold change /veh CAPN14 (11732068_a_at) / RFU TMCC2 (11721928_a_at) / Fold change /veh TMCC2 (11721928_a_at) / RFU IRGQ (11745062_a_at) / Fold change /veh IRGQ (11745062_a_at) / RFU FAM174B (11720279_a_at) / Fold change /veh FAM174B (11720279_a_at) / RFU TMPRSS4 (11748680_a_at) / Fold change /veh TMPRSS4 (11748680_a_at) / RFU FAM212B (11763350_a_at) / Fold change /veh FAM212B (11763350_a_at) / RFU PLEKHG5 (11743358_a_at) / Fold change /veh PLEKHG5 (11743358_a_at) / RFU ZSCAN30 (11745921_a_at) / Fold change /veh ZSCAN30 (11745921_a_at) / RFU CMKLR1 (11741424_a_at) / Fold change /veh CMKLR1 (11741424_a_at) / RFU LOC101060620 /// MAPK8IP1 (11723275_at) / Fold change /veh LOC101060620 /// MAPK8IP1 (11723275_at) / RFU SPTSSB (11747773_x_at) / Fold change /veh SPTSSB (11747773_x_at) / RFU PRSS12 (11739890_at) / Fold change /veh PRSS12 (11739890_at) / RFU BIN1 (11741810_x_at) / Fold change /veh BIN1 (11741810_x_at) / RFU WNT11 (11732464_a_at) / Fold change /veh WNT11 (11732464_a_at) / RFU C10orf10 (11716521_a_at) / Fold change /veh C10orf10 (11716521_a_at) / RFU C5orf56 (11738089_at) / Fold change /veh C5orf56 (11738089_at) / RFU CYB561 (11721691_x_at) / Fold change /veh CYB561 (11721691_x_at) / RFU ANKRD19P (11752326_a_at) / Fold change /veh ANKRD19P (11752326_a_at) / RFU OR2T12 /// OR2T33 /// OR2T8 (11738714_s_at) / Fold change /veh OR2T12 /// OR2T33 /// OR2T8 (11738714_s_at) / RFU VCAN (11748164_a_at) / Fold change /veh VCAN (11748164_a_at) / RFU JSRP1 (11732532_at) / Fold change /veh JSRP1 (11732532_at) / RFU KRTAP10-11 (11738290_x_at) / Fold change /veh KRTAP10-11 (11738290_x_at) / RFU MYO3A (11730013_a_at) / Fold change /veh MYO3A (11730013_a_at) / RFU EBF3 (11725865_a_at) / Fold change /veh EBF3 (11725865_a_at) / RFU CAMK2N1 (11719241_x_at) / Fold change /veh CAMK2N1 (11719241_x_at) / RFU C5orf56 (11738088_a_at) / Fold change /veh C5orf56 (11738088_a_at) / RFU OLFML3 (11715873_a_at) / Fold change /veh OLFML3 (11715873_a_at) / RFU LOC100653217 /// NTM (11731650_a_at) / Fold change /veh LOC100653217 /// NTM (11731650_a_at) / RFU MAPK11 (11762145_a_at) / Fold change /veh MAPK11 (11762145_a_at) / RFU FIZ1 (11724087_x_at) / Fold change /veh FIZ1 (11724087_x_at) / RFU OASL (11726364_x_at) / Fold change /veh OASL (11726364_x_at) / RFU SOX15 (11748057_x_at) / Fold change /veh SOX15 (11748057_x_at) / RFU CD79A (11719716_a_at) / Fold change /veh CD79A (11719716_a_at) / RFU HIST1H1D (11736915_at) / Fold change /veh HIST1H1D (11736915_at) / RFU CASKIN2 (11723855_a_at) / Fold change /veh CASKIN2 (11723855_a_at) / RFU LOC730098 (11760151_x_at) / Fold change /veh LOC730098 (11760151_x_at) / RFU OR4N2 (11742367_at) / Fold change /veh OR4N2 (11742367_at) / RFU PRRT2 (11749266_a_at) / Fold change /veh PRRT2 (11749266_a_at) / RFU SNX32 (11753110_a_at) / Fold change /veh SNX32 (11753110_a_at) / RFU CDHR5 (11726645_a_at) / Fold change /veh CDHR5 (11726645_a_at) / RFU RCAN1 (11760418_a_at) / Fold change /veh RCAN1 (11760418_a_at) / RFU FAM167A (11723789_a_at) / Fold change /veh FAM167A (11723789_a_at) / RFU FAM26E (11764081_at) / Fold change /veh FAM26E (11764081_at) / RFU ISYNA1 (11749810_s_at) / Fold change /veh ISYNA1 (11749810_s_at) / RFU ACY1 (11761880_at) / Fold change /veh ACY1 (11761880_at) / RFU 11764098_at / Fold change /veh 11764098_at / RFU SAMD14 (11745864_x_at) / Fold change /veh SAMD14 (11745864_x_at) / RFU NPB (11741838_a_at) / Fold change /veh NPB (11741838_a_at) / RFU TMPRSS6 (11731388_a_at) / Fold change /veh TMPRSS6 (11731388_a_at) / RFU KRTAP10-2 (11738614_at) / Fold change /veh KRTAP10-2 (11738614_at) / RFU ARHGAP8 /// PRR5-ARHGAP8 (11727945_x_at) / Fold change /veh ARHGAP8 /// PRR5-ARHGAP8 (11727945_x_at) / RFU KRTAP5-7 /// NADSYN1 (11734609_at) / Fold change /veh KRTAP5-7 /// NADSYN1 (11734609_at) / RFU RASL12 (11751679_a_at) / Fold change /veh RASL12 (11751679_a_at) / RFU CDKN2B (11736163_a_at) / Fold change /veh CDKN2B (11736163_a_at) / RFU PRF1 (11729649_at) / Fold change /veh PRF1 (11729649_at) / RFU, ZNF638 /// ZNF638-IT1 / Fold change vs veh, ZNF638 /// ZNF638-IT1 / RFU, PANK3 / Fold change vs veh, PANK3 / RFU, SH3YL1 / Fold change vs veh, SH3YL1 / RFU, ZEB2 / Fold change vs veh, ZEB2 / RFU, NRIP1 / Fold change vs veh, NRIP1 / RFU, PTTG1IP / Fold change vs veh, PTTG1IP / RFU, CAPN2 / Fold change vs veh, CAPN2 / RFU, MED14 / Fold change vs veh, MED14 / RFU, SNORA58 / Fold change vs veh, SNORA58 / RFU, C1orf63 / Fold change vs veh, C1orf63 / RFU, LRRFIP1 / Fold change vs veh, LRRFIP1 / RFU, NDUFAF7 / Fold change vs veh, NDUFAF7 / RFU, SLC12A2 / Fold change vs veh, SLC12A2 / RFU, IBTK / Fold change vs veh, IBTK / RFU, ESF1 / Fold change vs veh, ESF1 / Fold change vs veh, TMEM50B / RFU, TAOK1 / Fold change vs veh, TAOK1 / RFU, ACBD3 / Fold change vs veh, ACBD3 / RFU, TMA16 / Fold change vs veh, TMA16 / RFU, RWDD3 / Fold change vs veh, RWDD3 / RFU, BCAT1 / Fold change vs veh, BCAT1 / RFU, EDEM3 / Fold change vs veh, EDEM3 / RFU, TMEM33 / Fold change vs veh, TMEM33 / RFU, WDR75 / Fold change vs veh, WDR75 / RFU, AHCTF1 / Fold change vs veh, AHCTF1 / RFU, TFRC / Fold change vs veh, TFRC / RFU, ZDHHC17 / Fold change vs veh, ZDHHC17 / RFU, NOM1 / Fold change vs veh, NOM1 / RFU, ARL8B / Fold change vs veh, ARL8B / RFU, ZBTB11 / Fold change vs veh, ZBTB11 / RFU, TAMM41 / Fold change vs veh, TAMM41 / RFU, KIAA1704 /// LOC100996395 / Fold change vs veh, KIAA1704 /// LOC100996395 / RFU, ING1 / Fold change vs veh, ING1 / RFU, TRMT61B / Fold change vs veh, TRMT61B / RFU, FUBP3 / Fold change vs veh, FUBP3 / RFU, TP53 / Fold change vs veh, TP53 / RFU, TNKS2 / Fold change vs veh, TNKS2 / RFU, ZFP14 / Fold change vs veh, ZFP14 / RFU, ACTR2 / Fold change vs veh, ACTR2 / RFU, PPP3R1 / Fold change vs veh, PPP3R1 / RFU, PIK3R1 / Fold change vs veh, PIK3R1 / RFU, HNRNPA1 / Fold change vs veh, HNRNPA1 / RFU, RNF170 / Fold change vs veh, RNF170 / RFU, ZNF28 / Fold change vs veh, ZNF28 / RFU, RNGTT / Fold change vs veh, RNGTT / RFU, OGT / Fold change vs veh, OGT / RFU, BRD1 / Fold change vs veh, BRD1 / RFU, MARS / Fold change vs veh, MARS / RFU, ZNF655 / Fold change vs veh, ZNF655 / RFU, FAHD1 / Fold change vs veh, FAHD1 / RFU, BDP1 / Fold change vs veh, BDP1 / RFU, LRRCC1 / Fold change vs veh, LRRCC1 / RFU, ARID1A / Fold change vs veh, ARID1A / RFU, ZNF146 / Fold change vs veh, ZNF146 / RFU, ZNF330 / Fold change vs veh, ZNF330 / RFU, GPN3 / Fold change vs veh, GPN3 / RFU, C9orf123 / Fold change vs veh, C9orf123 / RFU, N4BP2L2 / Fold change vs veh, N4BP2L2 / RFU, ARFIP1 / Fold change vs veh, ARFIP1 / RFU, FAM179B / Fold change vs veh, FAM179B / RFU, BCL10 / Fold change vs veh, BCL10 / RFU, UHRF1BP1L / Fold change vs veh, UHRF1BP1L / RFU, BET1 / Fold change vs veh, BET1 / RFU, CNOT2 / Fold change vs veh, CNOT2 / RFU, ZNF268 / Fold change vs veh, ZNF268 / Fold change vs veh, ZNF507 / RFU, DGCR2 / Fold change vs veh, DGCR2 / RFU, WDSUB1 / Fold change vs veh, WDSUB1 / Fold change vs veh, HSP90B1 /// MIR3652 / RFU, ADSS / Fold change vs veh, ADSS / RFU, GK / Fold change vs veh, GK / RFU, ZNF148 / Fold change vs veh, ZNF148 / RFU, TAF9 / Fold change vs veh, TAF9 / RFU, SLC1A5 / Fold change vs veh, SLC1A5 / RFU, SLMO2 / Fold change vs veh, SLMO2 / RFU, ABCC4 / Fold change vs veh, ABCC4 / RFU, LOC101060439 /// RAP1B / Fold change vs veh, LOC101060439 /// RAP1B / RFU, RFX7 / Fold change vs veh, RFX7 / RFU, GTPBP10 / Fold change vs veh, GTPBP10 / RFU, CNEP1R1 / Fold change vs veh, CNEP1R1 / RFU, BIVM-ERCC5 /// ERCC5 / Fold change vs veh, BIVM-ERCC5 /// ERCC5 / RFU, ILF3 / Fold change vs veh, ILF3 / RFU 11762660_at / Fold change /veh 11762660_at / RFU VCAN (11757783_s_at) / Fold change /veh VCAN (11757783_s_at) / RFU DDX43 (11728927_at) / Fold change /veh DDX43 (11728927_at) / RFU KRT8 (11758188_x_at) / Fold change /veh KRT8 (11758188_x_at) / RFU NKD1 (11759106_at) / Fold change /veh NKD1 (11759106_at) / RFU SRD5A1 (11742802_a_at) / Fold change /veh SRD5A1 (11742802_a_at) / RFU TPSAB1 /// TPSB2 (11721975_s_at) / Fold change /veh TPSAB1 /// TPSB2 (11721975_s_at) / RFU GSTM3 (11746129_a_at) / Fold change /veh GSTM3 (11746129_a_at) / RFU IL23R (11737362_x_at) / Fold change /veh IL23R (11737362_x_at) / RFU TMEM51 (11727254_a_at) / Fold change /veh TMEM51 (11727254_a_at) / RFU PIWIL2 (11732686_x_at) / Fold change /veh PIWIL2 (11732686_x_at) / RFU ORM1 (11744905_x_at) / Fold change /veh ORM1 (11744905_x_at) / RFU CCDC152 (11743942_at) / Fold change /veh CCDC152 (11743942_at) / RFU ECM1 (11717891_a_at) / Fold change /veh ECM1 (11717891_a_at) / RFU IL23R (11748794_a_at) / Fold change /veh IL23R (11748794_a_at) / RFU TNFAIP8L3 (11732012_x_at) / Fold change /veh TNFAIP8L3 (11732012_x_at) / RFU MBOAT4 (11741988_at) / Fold change /veh MBOAT4 (11741988_at) / RFU 11764193_at / Fold change /veh 11764193_at / RFU TMEM53 (11763286_at) / Fold change /veh TMEM53 (11763286_at) / RFU MAGEB2 (11727129_at) / Fold change /veh MAGEB2 (11727129_at) / RFU TMEM200A (11744735_a_at) / Fold change /veh TMEM200A (11744735_a_at) / RFU CCDC152 (11751479_a_at) / Fold change /veh CCDC152 (11751479_a_at) / RFU FAM211A (11726209_a_at) / Fold change /veh FAM211A (11726209_a_at) / RFU RGS16 (11746705_a_at) / Fold change /veh RGS16 (11746705_a_at) / RFU VCAN (11755009_s_at) / Fold change /veh VCAN (11755009_s_at) / RFU RHOB (11743442_s_at) / Fold change /veh RHOB (11743442_s_at) / RFU RGS16 (11720943_a_at) / Fold change /veh RGS16 (11720943_a_at) / RFU RGS16 (11720944_at) / Fold change /veh RGS16 (11720944_at) / RFU, VPS4B / Fold change vs veh, VPS4B / RFU, CREB1 / Fold change vs veh, CREB1 / RFU, DNAJC13 / Fold change vs veh, DNAJC13 / RFU, GNAQ / Fold change vs veh, GNAQ / RFU, CDK5R1 / Fold change vs veh, CDK5R1 / RFU, ZRANB3 / Fold change vs veh, ZRANB3 / RFU, CUL4A / Fold change vs veh, CUL4A / RFU, CCNY / Fold change vs veh, CCNY / RFU, UFL1 / Fold change vs veh, UFL1 / RFU, COG3 / Fold change vs veh, COG3 / RFU, DIAPH2 / Fold change vs veh, DIAPH2 / RFU, SKA2 / Fold change vs veh, SKA2 / RFU, AFF3 / Fold change vs veh, AFF3 / RFU, LMF1 / Fold change vs veh, LMF1 / RFU, IPO11 / Fold change vs veh, IPO11 / RFU, DFFB / Fold change vs veh, DFFB / RFU, FOXP1 / Fold change vs veh, FOXP1 / RFU, CARD8 / Fold change vs veh, CARD8 / RFU, STRN3 / Fold change vs veh, STRN3 / RFU, ADK / Fold change vs veh, ADK / RFU, RASSF2 / Fold change vs veh, RASSF2 / RFU, WIPF1 / Fold change vs veh, WIPF1 / RFU, LARP1B / Fold change vs veh, LARP1B / RFU, RASA1 / Fold change vs veh, RASA1 / RFU, RB1 / Fold change vs veh, RB1 / RFU, PPFIA1 / Fold change vs veh, PPFIA1 / RFU, MAT2A / Fold change vs veh, MAT2A / RFU, CCT5 / Fold change vs veh, CCT5 / RFU, WDR92 / Fold change vs veh, WDR92 / RFU, CUX1 / Fold change vs veh, CUX1 / RFU, TTC7A / Fold change vs veh, TTC7A / RFU, TMEM135 / Fold change vs veh, TMEM135 / RFU, DEPTOR / Fold change vs veh, DEPTOR / RFU, CPM / Fold change vs veh, CPM / RFU, DNAJB6 / Fold change vs veh, DNAJB6 / RFU, CACNA2D3 / Fold change vs veh, CACNA2D3 / RFU, DTX4 / Fold change vs veh, DTX4 / RFU, TFCP2 / Fold change vs veh, TFCP2 / RFU, GMCL1 /// GMCL1P1 / Fold change vs veh, GMCL1 /// GMCL1P1 / RFU, AEBP2 / Fold change vs veh, AEBP2 / RFU, SNHG1 /// SNORD22 /// SNORD25 /// SNORD26 /// SNORD27 /// SNORD28 /// SNORD29 /// SNORD31 / Fold change vs veh, SNHG1 /// SNORD22 /// SNORD25 /// SNORD26 /// SNORD27 /// SNORD28 /// SNORD29 /// SNORD31 / Fold change (Aza/veh), C12orf56 (ProbeSet 11735607_a_at) / Fold change (ACY-1035/veh), C12orf56 (ProbeSet 11735607_a_at) / Fold change (Aza/veh), FGFR1OP (ProbeSet 11751329_s_at) / Fold change (ACY-1035/veh), FGFR1OP (ProbeSet 11751329_s_at) / Fold change (Aza/veh), VPS36 (ProbeSet 11739960_a_at) / Fold change (ACY-1035/veh), VPS36 (ProbeSet 11739960_a_at) / RFU SYPL1 (11715823_x_at) / Fold change /veh SYPL1 (11715823_x_at) / RFU IGFBP7 (11715501_s_at) / Fold change /veh IGFBP7 (11715501_s_at) / RFU REEP3 (11722064_at) / Fold change /veh REEP3 (11722064_at) / RFU IGLL1 (11728026_x_at) / Fold change /veh IGLL1 (11728026_x_at): dose or concentration left out as unconfirmed
Details: ProbeSet 11757268_x_at; LIST B

Q: How did the “Fold change vs veh, HNRNPA1” value turn out when `Nc1ccc(-c2cccs2)cc1NC(=O)c1ccc2c(c1)cc(C1CC1)n2CCN1CCOCC1` [ACY-1035] was run?
A: 0.97
